This note sets out measurements from US5447942A, “N-derivatives of (phenylethyl-β-ol) amine, a process for their preparation and pharamaceutical compositions containing the same” (Societe de Conseils de Recherches et d'Applications …, priority 1992, dated 1995).

Each structure is given as a SMILES string. Read-outs that look alike come from different tables or passages of the source.

In test [1] the target is β adrenoceptors. Nature of the test: radioligand binding studies in lung membrane (Table A, binding affinity). An excerpt: The results are summarised in Table A. Generally, the activity is better for the trans than the cis isomer.
Test [2] concerns acetylcholine induced bronchoconstriction. Nature of the test: inhibition of acetylcholine induced bronchoconstriction, Konzett and Rossler method (Table B). The note with it: IV; for inhibition in vivo at 4.6 µmol/kg / inhibition in vivo at 0.46 µmol/kg / inhibition in vivo at 1.5 µmol/kg / inhibition in vivo at 0.42 µmol/kg / inhibition in vivo at 4.18 µmol/kg / inhibition in vivo at 4.8 µmol/kg / inhibition in vivo at 0.47 µmol/kg / inhibition in vivo at 0.13 µmol/kg / inhibition in vivo at 1.6 µmol/kg: Cavia porcellus. It counts as in vivo, Male Hartley Guinea Pigs. On the procedure:
Male Hartley Guinea Pigs (450-500 g) were anaesthetised with ethyl carbamate and prepared for recording bronchoconstriction according to Konzett and Rossler method (Naunym Schmiedebergers Arch. Exp. Path. Pharmakol (1940) 195, 71). To abolish spontaneous respiration, an injection IV of vecuronium bromide (2 mg/kg) was made. Bronchoconstriction was induced by IV injection of Acetylcholine and the animals received one dose of β agonist compound (IV) 5 minutes later.

Test [3] deals with α, receptor. Nature of the test: binding α receptor.
In test [4] the test system is isolated aorta contraction induced by phenylephrine. As to the kind of experiment: inhibition of isolated aorta contraction induced by phenylephrine.
Setting [5] is: 5 min, 0.42 μmol/kg, 5 mn, read-out: bronchoconstriction protection, score 5 mn.
Setting [6] is: 0.25 h, 0.42 μmol/kg, 15 mn, read-out: bronchoconstriction protection, score 15 mn.
[7] abbreviates: 0.5 h, 0.42 μmol/kg, 30 mn, read-out: bronchoconstriction protection, score 30 mn.
Where [8] appears, read: 5 min, 0.13 μmol/kg, 5 mn, read-out: bronchoconstriction protection, score 5 mn.
[9] abbreviates: 0.25 h, 0.13 μmol/kg, 15 mn, read-out: bronchoconstriction protection, score 15 mn.
Setting [10] is: 0.5 h, 0.13 μmol/kg, 30 mn, read-out: bronchoconstriction protection, score 30 mn.
Where [11] appears, read: 5 min, 1.6 μmol/kg, 5 mn, read-out: bronchoconstriction protection, score 5 mn.
[12] abbreviates: 0.25 h, 1.6 μmol/kg, 15 mn, read-out: bronchoconstriction protection, score 15 mn.
Setting [13] is: 0.5 h, 1.6 μmol/kg, 30 mn, read-out: bronchoconstriction protection, score 30 mn.

As for `COc1cc([C@H]2CC[C@@H](CNCC(O)c3ccc(O)c(CO)c3)O2)cc(OC)c1OC` (relative stereo) [Example 2 (cis), 2-(3',4',5'-trimethoxyphenyl)-5-[N-[β-(3'-hydroxymethyl-4'-hydroxy-phenyl)-β-hydroxy-ethyl]-aminomethyl]-tetrahydrofuran], the inhibition constant Ki in test [1] came to 410 nM; in test [3], 61 nM. In addition, the “bronchoconstriction protection, duration of action” value (“bronchoconstriction protection” for short) in test [2] (4.6 μmol/kg) was 5 mn. The inhibition in vivo at 4.6 µmol/kg in test [2] (5 min, 4.6 μmol/kg, 5 mn, read-out: bronchoconstriction protection, score 5 mn) was 20 to 50%; in test [2] (0.25 h, 4.6 μmol/kg, 15 mn, read-out: bronchoconstriction protection, score 15 mn) it was below 20%; in test [2] (0.5 h, 4.6 μmol/kg, 30 mn, read-out: bronchoconstriction protection, score 30 mn), below 20%. The “pA2, inhibitor of isolated aorta contraction induced by phenylephrine” value in test [4] was found to be 7.75.
The molecule `COc1ccc([C@H]2CC[C@H](CNCC(O)c3ccc(O)c(CO)c3)O2)cc1` (relative stereo) [Example 9 (trans), 2-(4'-methoxyphenyl)-5-[N-[β-(3'-hydroxymethyl-4'-hydroxy-phenyl)-β-hydroxy-ethyl]-aminomethyl]-tetrahydrofuran] came in with a Ki in test [1] of 590 nM. The “bronchoconstriction protection” value in test [2] (0.46 μmol/kg) is above 30 mn. The inhibition in vivo at 0.46 µmol/kg in test [2] (5 min, 0.46 μmol/kg, 5 mn, read-out: bronchoconstriction protection, score 5 mn) is above 75%; in test [2] (0.25 h, 0.46 μmol/kg, 15 mn, read-out: bronchoconstriction protection, score 15 mn), 50 to 75%; in test [2] (0.5 h, 0.46 μmol/kg, 30 mn, read-out: bronchoconstriction protection, score 30 mn) it was 20 to 50%.
Turning to `COc1cc([C@H]2CC[C@@H](CCNCC(O)c3ccc(O)c(CO)c3)O2)cc(OC)c1OC` (relative stereo) [Example 14 (cis), 2-(3',4',5'-trimethoxyphenyl)-5-[N-[β-(3'-hydroxymethyl-4'-hydroxy-phenyl)-β-hydroxy-ethyl]-aminoethyl]-tetrahydrofuran], in test [1], the Ki worked out at 1900 nM. For the same molecule, the “bronchoconstriction protection” value in test [2] (1.5 μmol/kg) came to 30 mn. The inhibition in vivo at 1.5 µmol/kg in test [2] (5 min, 1.5 μmol/kg, 5 mn, read-out: bronchoconstriction protection, score 5 mn) is above 75%; in test [2] (0.25 h, 1.5 μmol/kg, 15 mn, read-out: bronchoconstriction protection, score 15 mn), 20 to 50%; in test [2] (0.5 h, 1.5 μmol/kg, 30 mn, read-out: bronchoconstriction protection, score 30 mn), 20 to 50%.
In test [1], `COc1cc([C@H]2CC[C@H](CCCNCC(O)c3ccc(O)c(CO)c3)O2)cc(OC)c1OC` (relative stereo) [Example 15 (trans), 2-(3',4',5'-trimethoxyphenyl)-5-[-N-[β-(3'-hydroxymethyl-4'-hydroxy-phenyl)-β-hydroxy-ethyl]-aminopropyl]-tetrahydrofuran] displayed a Ki of 760 nM. Further, the “bronchoconstriction protection” value is on record as 20 mn in test [2] (0.42 μmol/kg) and above 50 mn in test [2] (4.18 μmol/kg). Moreover, the inhibition in vivo at 0.42 µmol/kg in test [2] (setting [5]) is above 75%; in test [2] (setting [6]), 50 to 75%; in test [2] (setting [7]) it was below 20%. For the same molecule, the inhibition in vivo at 4.18 µmol/kg is above 75% in test [2] (5 min, 4.18 μmol/kg, 5 mn, read-out: bronchoconstriction protection, score 5 mn); above 75% in test [2] (0.25 h, 4.18 μmol/kg, 15 mn, read-out: bronchoconstriction protection, score 15 mn); 50 to 75% in test [2] (0.5 h, 4.18 μmol/kg, 30 mn, read-out: bronchoconstriction protection, score 30 mn).
On to `OCc1cc(C(O)CNCC2CCC(c3ccccc3)O2)ccc1O` (stereo not drawn) [Example 1, 2-phenyl-5-[N-[β-(3'-hydroxymethyl-4'-hydroxy-phenyl)-β-hydroxy-ethyl]aminomethyl]-tetrahydrofuran], for which, in test [1], the Ki turned out to be 410 nM. Besides, the “bronchoconstriction protection” value in test [2] (4.8 μmol/kg) is listed as 0 mn. In addition, the inhibition in vivo at 4.8 µmol/kg in test [2] (5 min, 4.8 μmol/kg, 5 mn, read-out: bronchoconstriction protection, score 5 mn) is below 20%; in test [2] (0.25 h, 4.8 μmol/kg, 15 mn, read-out: bronchoconstriction protection, score 15 mn), below 20%; in test [2] (0.5 h, 4.8 μmol/kg, 30 mn, read-out: bronchoconstriction protection, score 30 mn), below 20%.
Consider `OCc1cc(C(O)CNCC2CCC(c3ccccc3F)O2)ccc1O` (stereo not drawn) [Example 6, 2-(2'-fluorophenyl)-5-[N-[β-(3'-hydroxymethyl-4'-hydroxy-phenyl)-β-hydroxy-ethyl]-aminomethyl]-tetrahydrofuran], for which affinity in test [1] was put at a Ki of 1800 nM. In test [2] (0.47 μmol/kg), the “bronchoconstriction protection” value is listed as below 30 mn. Moreover, the inhibition in vivo at 0.47 µmol/kg in test [2] (5 min, 0.47 μmol/kg, 5 mn, read-out: bronchoconstriction protection, score 5 mn) lay in the range of 50 to 75%; in test [2] (0.25 h, 0.47 μmol/kg, 15 mn, read-out: bronchoconstriction protection, score 15 mn) it was 20 to 50%; in test [2] (0.5 h, 0.47 μmol/kg, 30 mn, read-out: bronchoconstriction protection, score 30 mn), 20 to 50%.
For `OCc1cc(C(O)CNCC2CCC(c3ccncc3)O2)ccc1O` (stereo not drawn) [Example 12, 2-(4'-pyridyl)-5-[N-[β-(3'-hydroxymethyl-4'-hydroxy-phenyl)-β-hydroxy-ethyl]-aminomethyl]-tetrahydrofuran], in test [1], the affinity corresponds to a Ki of 350 nM. In addition, the “bronchoconstriction protection” value in test [2] (0.13 μmol/kg) and in test [2] (0.42 μmol/kg) was above 30 mn in each case. Also, the inhibition in vivo at 0.13 µmol/kg is 50 to 75% in test [2] (setting [8]), 20 to 50% in test [2] (setting [9]) and 20 to 50% in test [2] (setting [10]). Further, the inhibition in vivo at 0.42 µmol/kg in test [2] (setting [5]) lay within 50 to 75%; in test [2] (setting [6]), 50 to 75%; in test [2] (setting [7]) it was 20 to 50%.
In test [1], `OCc1cc(C(O)CNCCCC2CCC(c3ccccc3Cl)O2)ccc1O` (stereo not drawn) [Example 16, 2-(2'-chlorophenyl)-5-[N-[β-(3'-hydroxymethyl-4'-hydroxy-phenyl)-β-hydroxy-ethyl]-aminopropyl]-tetrahydrofuran] showed a Ki of 570 nM. Besides, the “bronchoconstriction protection” value in test [2] (1.6 μmol/kg) is given as above 15 mn. Besides, the values for the inhibition in vivo at 1.6 µmol/kg in test [2] (setting [11]), in test [2] (setting [12]) and in test [2] (setting [13]) were 20 to 50%, 20 to 50% and below 20%, respectively.
In test [1], `COc1cc(C2CC(CNCC(O)c3ccc(O)c(CO)c3)CO2)cc(OC)c1OC` (stereo not shown) [Example 18] displayed an inhibition constant (Ki) of 1600 nM. Also, in test [2] (1.6 μmol/kg), the “bronchoconstriction protection” value is on record as 30 mn. Further, the inhibition in vivo at 1.6 µmol/kg in test [2] (setting [11]) fell in the range of 50 to 75%; in test [2] (setting [12]), 20 to 50%; in test [2] (setting [13]), 20 to 50%.
In test [1], `CC(C)(C)NCC(O)c1ccc(O)c(CO)c1` (stereo not shown) [Salbutamol, reference compound] yielded a Ki of 2500 nM. The “bronchoconstriction protection” value is reported as 10 mn in test [2] (0.13 μmol/kg) and 30 mn in test [2] (0.42 μmol/kg). The figures for the inhibition in vivo at 0.13 µmol/kg in test [2] (setting [8]), in test [2] (setting [9]) and in test [2] (setting [10]) were above 75%, below 20% and below 20%, respectively. Besides, the inhibition in vivo at 0.42 µmol/kg in test [2] (setting [5]) was above 75%; in test [2] (setting [6]), above 75%; in test [2] (setting [7]), below 20%.

As usually defined, the Ki is the dissociation constant of the complex between target and ligand, obtained from inhibition or displacement. The low end stands for a stronger hold on the target, the high end for a looser hold on the target.
